Patent US20260158136A1, “MEDICAMENT FOR TREATMENT AND/OR PREVENTION OF CANCER” (TORAY INDUSTRIES, INC., priority 2022, published 2026)

How the values were obtained:
Type in all cases: cell-based
[1] = tested on: human colon cancer cell line (HCT116); experiment: THP-1-mediated phagocytic activity against HCT116, anti-CAPRIN-1 antibody with ribociclib (Example 3)
Experimental: (§1) Specifically, in CDK inhibitor combination test group, the indicated ribociclib was applied to human cancer cells, and then the cancer cells were cocultured with human monocytic cells (THP-1) in the presence of the anti-CAPRIN-1 antibody, and the antibody-mediated phagocytic activity against the cancer cells by THP-1 was evaluated.
(§2) The human-derived cancer cell used was a colon cancer cell line HCT116. On a 6-well plate, the human-derived cancer cells were cultured for 2 days in the presence of the ribociclib (30 μM), for the CDK inhibitor combination test group. As a control, a test group without a drug used in combination, in which only the anti-CAPRIN-1 antibody was added, was established. In the control group, the cancer cells were cultured for 2 days without addition of the drug used in combination beforehand.
Each cancer cell line after the culture was dissociated with TrypLE Express (Thermo), and the cancer cells were stained by the addition of calcein-AM at a final concentration of 0.04 μg/mL and incubation at 37° C. for 10 minutes. Next, the cells were dispensed at 5×10^3 cancer cells per well to a 96-well plate, and the anti-CAPRIN-1 antibody at a final concentration of 1 μg/mL and 1.25×10^5 THP-1 cells were added to each well, followed by culture at 37° C. for 1 hour under a condition of 5% CO2. Then, the cells were washed with PBS (phosphate buffer solution) containing 1% FBS (fetal bovine serum), and the human monocytic cells were stained through a reaction with an APC (allophycocyanin)-labeled anti-human CD45 antibody (final concentration: 0.25 μg/mL). Further, dead cells were stained with propidium iodide (PI) (final concentration: 0.1 μg/mL), followed by the measurement of fluorescence from the cells by flow cytometry. PI-positive dead cells were excluded from analysis. The human monocytic cells THP-1 recognize an antibody bound onto cancer cells and phagocytize the cancer cells. […] Thus, the phagocytic activity in this evaluation system was calculated as the ratio (%) of APC-positive/calcein-AM-positive cells to the whole calcein-AM-positive population.

[2] = tested on: human colon cancer cell line (HCT116); experiment: THP-1-mediated phagocytic activity against HCT116, anti-CAPRIN-1, anti-CD20 or anti-HER-2 antibody alone or with palbociclib (Example 4)
Experimental: The human-derived cancer cell used was a colon cancer cell line HCT116. On a 6-well plate, the human-derived cancer cells were cultured for 2 days in the presence of the respective drugs used in combination for the palbociclib combination test group. Specifically, palbociclib was added at a concentration of 10 μM to HCT 116. […] In the control group, the cancer cells were cultured for 2 days without addition of palbociclib beforehand.
Each cancer cell line after the culture was dissociated with TrypLE Express (Thermo), and the cancer cells were stained by the addition of calcein-AM at a final concentration of 0.04 μg/mL and incubation at 37° C. for 10 minutes. […] Then, the cells were washed with PBS (phosphate buffer solution) containing 1% FBS (fetal bovine serum), and the human monocytic cells were stained through a reaction with an APC (allophycocyanin)-labeled anti-human CD45 antibody (final concentration: […]). Further, dead cells were stained with propidium iodide (PI) (final concentration: 0.1 μg/mL), followed by the measurement of fluorescence from the cells by flow cytometry. PI-positive dead cells were excluded from analysis. The human monocytic cells THP-1 recognize an antibody bound onto cancer cells and phagocytize the cancer cells. At that time, if the cancer cells have been stained with calcein-AM, the monocytic cells ingesting the cancer cells by phagocytosis also become positive to calcein-AM. Thus, the phagocytic activity in this evaluation system was calculated as the ratio (%) of APC-positive/calcein-AM-positive cells to the whole calcein-AM-positive population.

[3] = tested on: human colon cancer cell line (HCT116); experiment: THP-1-mediated phagocytic activity against HCT116, anti-CAPRIN-1 antibody with palbociclib or abemaciclib (Example 2A); details: Student's t test, p<0.001; with anti-CAPRIN-1 antibody; FIG. 1
Experimental: as §1, with “drug used in combination” for “ribociclib”
as §2, with “palbociclib (10 μM) or abemaciclib (1 μM)” for “the ribociclib (30 μM),”, “In the control group, the cancer cells were cultured for 2 days without addition of the drug used in combination beforehand.” left out
(§3) Each cancer cell line after the culture was dissociated with TrypLE Express (Thermo), and the cancer cells were stained by the addition of calcein-AM at a final concentration of 0.04 μg/mL and incubation at 37° C. for 10 minutes. […] Further, dead cells were stained with propidium iodide (PI) (final concentration: 0.1 μg/mL), followed by the measurement of fluorescence from the cells by flow cytometry. […] Thus, the phagocytic activity in this evaluation system was calculated as the ratio (%) of APC-positive/calcein-AM-positive cells to the whole calcein-AM-positive population.

[4] = tested on: human colon cancer cell line (HCT116); experiment: THP-1-mediated phagocytic activity against HCT116, anti-CAPRIN-1 antibody with palbociclib or abemaciclib, control IgG included (Example 2B); details: Dunnett's test, p<0.001; anti-CAPRIN-1 antibody treatment group; FIG. 2
Experimental: as §1, with “drug used in combination” for “ribociclib”, “evaluated. A human IgG antibody (Sigma-Aldrich Co. LLC, Cat. No.: 4506) was used as a control antibody.” for “evaluated.”
as §2, with “palbociclib ([…]) or abemaciclib (1” for “ribociclib (30”, “In the control group, the cancer cells were cultured for 2 days without addition of the drug used in combination beforehand.” left out
as §3

[5] = tested on: human colon cancer cell line (HCT116); experiment: THP-1-mediated phagocytic activity against HCT116, anti-CAPRIN-1 antibody with palbociclib or cisplatin (Example 5); details: for phagocytic activity of combination test group compared with test group without a drug used in combination: Dunnett's test, with anti-CAPRIN-1 antibody, FIG. 5; for phagocytic activity against cancer cells: drug combination test group: HCT116 cultured 2 days with palbociclib 10 μM or cisplatin 1 μM, then anti-CAPRIN-1 humanized antibody #1 1 μg/mL + THP-1, 1 h
Experimental: as §1, with “each” for “CDK”, “drug used in combination” for “ribociclib”
The human-derived cancer cell used was a colon cancer cell line HCT116. On a 6-well plate, the human-derived cancer cells were cultured for 2 days in the presence of the respective drugs used in combination, for the palbociclib combination test group. Specifically, palbociclib was added at a concentration of 10 μM and cisplatin at a concentration of 1 μM to HCT 116. As a control, a test group without a drug used in combination, in which only the anti-CAPRIN-1 antibody was added, was established. In the control group, the cancer cells were cultured for 2 days without addition of the drug used in combination beforehand.
Each cancer cell line after the culture was dissociated with TrypLE Express (Thermo), and the cancer cells were stained by the addition of calcein-AM at a final concentration of 0.04 μg/mL and incubation at 37° C. for 10 minutes. Next, the cells were dispensed at 1×10^4 cancer cells per well to a 96-well plate, and the anti-CAPRIN-1 antibody at a final concentration of 1 μg/mL and 10×10^5 THP-1 cells were added to each well, followed by culture at 37° C. for 1 hour under a condition of 5% CO2. Then, the cells were washed with PBS (phosphate buffer solution) containing 1% FBS (fetal bovine serum), and the human monocytic cells were stained through a reaction with an APC (allophycocyanin)-labeled anti-human CD45 antibody (final concentration: 0.25 μg/mL). Further, dead cells were stained with propidium iodide (PI) (final concentration: 0.1 μg/mL), followed by the measurement of fluorescence from the cells by flow cytometry. PI-positive dead cells were excluded from analysis. The human monocytic cells THP-1 recognize an antibody bound onto cancer cells and phagocytize the cancer cells. At that time, if the cancer cells have been stained with calcein-AM, the monocytic cells ingesting the cancer cells by phagocytosis also become positive to calcein-AM. Thus, the phagocytic activity in this evaluation system was calculated as the ratio (%) of APC-positive/calcein-AM-positive cells to the whole calcein-AM-positive population.

CN(C)C(=O)c1cc2cnc(Nc3ccc(N4CCNCC4)cn3)nc2n1C1CCCC1 [ribociclib, 7-cyclopentyl-N,N-dimethyl-2-[(5-piperazin-1-ylpyridin-2-yl)amino]pyrrolo[2,3-d]pyrimidine-6-carboxamide]
phagocytic activity of combination test group compared with test group without a drug used in combination ([1]; Dunnett's test, p<0.001, with anti-CAPRIN-1 antibody, FIG. 3): significantly higher | increase of antitumor effect of the anti-CAPRIN-1 antibody by the combination ([1]; combination versus antibody alone, HCT116): ≥ 2.5 times | phagocytic activity against cancer cells ([1]; ribociclib combination test group: HCT116 cultured 2 days with ribociclib 30 μM, then anti-CAPRIN-1 humanized antibody #1 1 μg/mL + THP-1, 1 h): ≥ 58%

anti-CD20 antibody: anti-CD20 antibody ("Rituxan") purchased from Chugai Pharmaceutical Co., Ltd.
effect of palbociclib combination on phagocytic activity compared with antibody without a drug used in combination ([2]; palbociclib 10 μM, Dunnett's test, FIG. 4): not remarkably increased | phagocytic activity against cancer cells ([2]; palbociclib combination test group: HCT116 cultured 2 days with palbociclib 10 μM, then antibody at final concentration 1 μg/mL + THP-1, 1 h): ≤ 11% | phagocytic activity against cancer cells ([2]; test group without a drug used in combination: antibody only, 1 μg/mL + THP-1, 1 h): ≤ 7%

CCN1CCN(Cc2ccc(Nc3ncc(F)c(-c4cc(F)c5nc(C)n(C(C)C)c5c4)n3)nc2)CC1 [abemaciclib, N-[5-[(4-ethylpiperazin-1-yl)methyl]pyridin-2-yl]-5-fluoro-4-(7-fluoro-2-methyl-3-propan-2-ylbenzimidazol-5-yl)pyrimidin-2-amine]
phagocytic activity of combination test group compared with test group without a drug used in combination [3]: significantly higher | phagocytic activity of combination test group compared with test group without a drug used in combination [4]: significantly higher

CC(=O)c1c(C)c2cnc(Nc3ccc(N4CCNCC4)cn3)nc2n(C2CCCC2)c1=O [palbociclib, 6-acetyl-8-cyclopentyl-5-methyl-2-[(5-piperazin-1-ylpyridin-2-yl)amino]pyrido[2,3-d]pyrimidin-7-one]
phagocytic activity of combination test group compared with test group without a drug used in combination [3]: significantly higher | phagocytic activity of combination test group compared with test group without a drug used in combination [4]: significantly higher | phagocytic activity of combination test group compared with test group without a drug used in combination [5]: significantly higher | phagocytic activity against cancer cells [5]: ≥ 54%

N.N.[Cl][Pt][Cl] [cisplatin]
phagocytic activity of combination test group compared with test group without a drug used in combination [5]: no significant change | phagocytic activity against cancer cells [5]: ≤ 23%
